Here are results for 2 compounds from US7579338B2, “Methods and compositions for treating atheroma, tumors and other neoplastic tissues” (Pharmacyclics, Inc., priority 1999, dated 2009).

A short description of assay [1]: Production of H2O2 in the presence of NADPH (Bioxytech H2O2-560 colorimetric). In kind it is biochemical. The note with it: NADPH plus 0.05 molar equivalent texaphyrin, no catalase, over the course of 100 minutes. The protocol: • Stock NADPH (Sigma N 7505) (prepared fresh): 10.14 mg/(10 mL×833.4 mg/mmol)=1.217 mM • Stock LuTex: 5.02 mg/(10.0 mL water×1166 mg/mmol)=[…] • Stock 4× Buffer: 200 mM HEPES, pH 7.5; 400 mM NaCl These were combined to form the reaction mixture: 200 μL 4× Buffer, 200 μL NADPH Stock, 371.8 μL Water, 28.2 μL LuTex Stock. This was analyzed as indicated below. As a control, a solution in which the LuTex complex was not added was prepared as above, with suitable adjustment of the volume of water, and analyzed concurrently. In similar manner, a solution was prepared as above except that 2 μL catalase (Boeringer-Mannheim 106 836, now Roche Molecular Biochemicals, Indianapolis, Ind.) was added, and analyzed concurrently.
A reaction mixture was prepared containing NADPH, buffer, and water. Texaphyrin catalyst, eg., 0.05 molar equivalent, was added to this reaction mixture, vortexed briefly, and incubated at ambient temperature in the dark. […] The absorbance at 240 nm was used to standardize this solution, which was further diluted and used to construct a standard H2O2 curve at 560 nm in conjunction with the H2O2 calorimetric reagent. […]
Measurements of the absorbance at 560 nm (with appropriate subtraction of the background absorbance of the reagent at this wavelength) were made of samples taken at the various time points.

Assay [2] in a line: Production of H2O2 in the presence of ascorbate (colorimetric). The settings on record: ascorbate plus GdTex, over the time interval of 75 to 200 minutes. In kind it is biochemical. As for the experimental part:
In this example, the following stock solutions were prepared: • Stock ascorbic acid (Sigma A 5960) (prepared fresh): 9.98 mg/(10 mL×176.12 mg/mmol)=5.67 mM • Stock GdTex: 5.76 mg/(10.0 mL water×1148 mg/mmol)=502 μM • Stock 4× Buffer: 200 mM HEPES, pH 7.5; 400 mM NaCl These were combined to form the reaction mixture: 200 μL 4× Buffer, 39 μL ascorbic acid Stock, 517.3 μL Water, 43.7 μL GdTex Stock. The reaction mixture was analyzed for hydrogen peroxide as indicated above. As a control, a solution in which complex was not added was prepared as above, with suitable adjustment of the volume of water, and analyzed concurrently.
Measurements of the absorbance at 560 nm (with appropriate subtraction of the background absorbance of the reagent at this wavelength) were made of samples taken at the various timepoints. It was noted that the control solution gave a uniform background absorbance which was similar at all time points, whereas the mixture containing GdTex gave an increasing amount of absorbance over time. (Sugars are known to produce high background absorbance in this assay, see manufacturers insert for details.)

Assay [3] relates to MES-SA human uterine cells. Description: Proliferation of BSO-treated MES-SA cells with Antimycins A and GdTex (MTT). In kind it is cell-based. The settings on record: BSO pre-treated cells, Antimycins A 0 to 20 μM, GdTex up to 100 μM, 20 h. The protocol:
The proliferation of MES-SA human uterine cells grown in McCoys SA medium in the presence of the thiol depleting agent BSO, with varying concentrations of a mitochondrial inhibitor (Antimycins A) and GdTex was used to assess the combined effect of these agents.
Materials and Methods. MES-SA cells were incubated at 37° C. and allowed to adhere to 96-well microtiter plates (2000 cells per well) overnight in 180 μL McCoys 5A containing 10% FBS (Gibco-BRL) and ca. 2% penicillin/streptomycin solution (Sigma). BSO (20 μL) was added to all wells followed by incubation for a further 24 h. The medium was exchanged and Antimycins A was serially diluted at concentrations ranging from 0 to 20 μM and after 0.5 hr metallotexaphyrin complex (up to 100 μM) was added to the test wells to give a final volume of 200 μL, followed by incubation for 20 h, whereupon the medium was exchanged and the plates were incubated an additional 52 h prior to analysis for viability using the MTT assay.

In assay [4] the test system is MES-SA human uterine cells. Briefly: Proliferation of MES-SA cells with BSO and GdTex (MTT). In kind it is cell-based. The protocol:
The proliferation of MES-SA human uterine cells grown in McCoys 5A medium in the presence of a thiol depleting agent (BSO) or GdTex was used to assess the combined effect of these agents. The protocol outlined in the previous example was followed, with the following changes:
1. The serially diluted compound was 200 μM BSO (Sigma Chemical, St. Louis, Mo., catalogue no. G1404).
2. The cells were allowed to incubate in the presence of the two drugs for ca. 72 hours, prior to exchange of media and analysis using the colorimetric (MTT) assay, as described, e.g., in Example 5.

For `CC(=O)[O-].CC(=O)[O-].CCc1c(CC)c2cc3nc(cnc4cc(OCCOCCOCCOC)c(OCCOCCOCCOC)cc4ncc4nc(cc1[n-]2)C(CCCO)=C4C)C(C)=C3CCCO.O.[Lu+3]` [LuTex, motexafin lutetium], the H2O2 produced result in assay [1] is listed as “Approximately 40 μM”.

Consider `CC(=O)[O-].CC(=O)[O-].CCc1c(CC)c2cc3nc(cnc4cc(OCCOCCOCCOC)c(OCCOCCOCCOC)cc4ncc4nc(cc1[n-]2)C(CCCO)=C4C)C(C)=C3CCCO.O.[Gd+3]` [GdTex, motexafin gadolinium], for which the H2O2 produced entry in assay [2] is given as “approximately 35 μM”. Moreover, in assay [3], the “combined effect of GdTex and Antimycins A on cell growth” value is “increase in the cytotoxic dose response of the cells towards Antimycins A”. In assay [4] (absence of BSO, ca. 72 hours, McCoys 5A medium), the “inhibitory effect of GdTex alone” value is recorded as “ca. 50%”. In assay [4] (increasing amounts of GdTex with BSO, data normalized for GdTex alone), the “combined effect of GdTex and BSO on cell growth” value is recorded as “increase in the cytotoxic dose response of the cells towards BSO”.
